Test results as given in patent US5948814A, “Genistein for the treatment of cystic fibrosis” (priority 1998, dated 1999).

biological target: T1, ΔF508-CFTR (Homo sapiens, UniProt P13569, DEL508-508); experiment: Patch clamp, cell-attached patches, macroscopic current, NIH/3T3-ΔF508 cells; details: 200 μM CPT-cAMP after 10 μM forskolin
Method: FIGS. 3A and B show recordings of the potentiation of wild-type (wt) and ΔF508-CFTR channel activity by genistein. Channels in cell-attached patches from NIH/3T3-CFTR (FIG. 3A) and NIH/3T3-ΔF508cells (FIG. 3B), were stimulated as indicated with 10 μM forskolin and 50μ genestein.
Cell culture: NIH/3T3-CFTR, NIH/3T3-ΔF508, and NIH/3T3 mock cells (generous gifts from Dr. Richard Mulligan of Children's Hospital and Medical Center, Harvard Medical School) were grown as described [Bradbury et al., 1992] at 37° C. and 5% CO2 in Dulbecco's modified Eagle's medium-H21 supplemented with 10% new-born calf serum, 4 mM glutamine, 25 mM glucose, 100 μg/ml penicillin, 100 μg/ml streptomycin, and 50 μg/ml gentamicin. Cells were maintained in T75 flasks, passaged at 90-95% confluency, and split one to four. For measurements of I^- efflux and in vivo phosphorylation, cells were seeded onto 35-mm dishes at […]. For patch-clamp experiments, cells were grown on coverglass chips in 35-mm culture dishes. Media were replaced 24 hours after plating and thereafter every 48 hours. In all cases, media were changed on the day before I^- efflux studies, NIH/3T3-ΔF508 cells were transferred to 27° C. three days before use, and 1 day prior to study, media were supplemented with 5 mM butyrate. For patch-clamp studies, where a constant level of functional ΔF508-CFTR was not essential, NIH/3T3-ΔF508 cells were cultured at 27° C. for 2-6 days before use. Calu-3 cells were grown and maintained as described by Hunter [1995].
Electrophysiology: CFTR channel currents were recorded at room temperature (~22° C.) with a patch-clamp amplifier (EPC-9, Heka Electronic), filtered at 100 Hz with a built-in three-pole Bessel filter, and stored on videotapes. Data were subsequently refiltered at 25 Hz with an eight-pole Bessel filter (Frequency Device, Havervill, Mass.) and captured onto a hard disk at a sampling rate of 50 Hz. […] Patch-clamp electrodes were made from Corning 7052 glass capillaries (Warner Instrument, Hammed, Conn.). The pipette resistance was usually 3-5 M.OMEGA., and the seal resistance was >20 G.OMEGA.. The pipette solution contained (in mM) 140 N-methyl-D-glucamine chloride (NMDG-C1), 2 MgCl2, 5Ca Cl2, and 10 HEPES (pH 7.4 with NMDG). The superfusion solution contained (in mM) 150 […], 2 MgCl2, 1 EGTA, 5 glucose, and 5 HEPES (pH 7.4 with NaOH). […]
Statistics: Mean currents and variance were estimated with Igor (Wavemetrics, Lake Oswego, Oreg.). […] Po was calculated from patches containing a single channel by dividing the open channel current amplitude with the mean-current amplitude. […] Calculated values are presented as means±SE. […]

T1 sequence (P13569 with tags, fused parts or gaps DEL508-508): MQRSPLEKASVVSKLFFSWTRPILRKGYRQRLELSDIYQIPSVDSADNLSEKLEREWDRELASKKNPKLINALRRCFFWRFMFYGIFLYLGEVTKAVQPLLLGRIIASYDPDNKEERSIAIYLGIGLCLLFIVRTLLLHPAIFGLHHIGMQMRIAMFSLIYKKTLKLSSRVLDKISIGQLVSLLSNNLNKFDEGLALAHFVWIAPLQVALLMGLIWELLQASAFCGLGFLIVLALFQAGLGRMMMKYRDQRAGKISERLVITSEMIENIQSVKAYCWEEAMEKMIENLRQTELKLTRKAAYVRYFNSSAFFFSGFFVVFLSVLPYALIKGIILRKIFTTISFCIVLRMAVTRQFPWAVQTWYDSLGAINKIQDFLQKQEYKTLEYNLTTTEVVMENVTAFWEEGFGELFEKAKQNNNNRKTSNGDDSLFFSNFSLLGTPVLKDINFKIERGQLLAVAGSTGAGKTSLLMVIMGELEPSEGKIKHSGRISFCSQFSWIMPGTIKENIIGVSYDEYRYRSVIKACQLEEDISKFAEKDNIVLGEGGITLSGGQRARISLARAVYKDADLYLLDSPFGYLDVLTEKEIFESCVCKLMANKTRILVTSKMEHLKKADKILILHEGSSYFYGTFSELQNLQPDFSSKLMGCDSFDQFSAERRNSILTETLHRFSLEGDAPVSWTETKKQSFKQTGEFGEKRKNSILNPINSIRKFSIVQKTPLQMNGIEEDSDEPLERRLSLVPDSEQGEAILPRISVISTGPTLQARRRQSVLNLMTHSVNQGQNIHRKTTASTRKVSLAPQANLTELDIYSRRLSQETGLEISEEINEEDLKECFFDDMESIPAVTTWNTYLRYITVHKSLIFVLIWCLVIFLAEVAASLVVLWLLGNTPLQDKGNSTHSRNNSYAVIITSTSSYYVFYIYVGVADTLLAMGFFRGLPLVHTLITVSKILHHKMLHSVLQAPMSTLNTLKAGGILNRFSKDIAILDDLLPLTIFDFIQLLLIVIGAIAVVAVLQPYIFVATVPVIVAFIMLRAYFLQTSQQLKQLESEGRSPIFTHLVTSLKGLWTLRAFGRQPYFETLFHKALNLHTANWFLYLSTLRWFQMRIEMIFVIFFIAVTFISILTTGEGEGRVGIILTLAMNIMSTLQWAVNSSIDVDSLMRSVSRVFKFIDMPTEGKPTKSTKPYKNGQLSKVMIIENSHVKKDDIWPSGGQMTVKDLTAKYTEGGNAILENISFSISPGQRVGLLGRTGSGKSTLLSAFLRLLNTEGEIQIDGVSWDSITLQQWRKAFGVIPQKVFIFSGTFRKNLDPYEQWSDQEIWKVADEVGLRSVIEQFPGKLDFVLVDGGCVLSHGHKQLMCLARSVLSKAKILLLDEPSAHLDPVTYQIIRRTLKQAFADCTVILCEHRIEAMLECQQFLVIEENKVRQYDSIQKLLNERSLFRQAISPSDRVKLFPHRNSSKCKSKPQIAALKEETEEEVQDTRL

SMILES | effect on mean-current amplitude of forskolin-stimulated cells
Nc1ncnc2c1nc(Sc1ccc(Cl)cc1)n2[C@@H]1O[C@@H]2COP(=O)(O)O[C@H]2[C@H]1O [CPT-cAMP, 8-(4-chlorophenylthio)-cAMP, reference compound] | failed to increase the mean-current amplitude

biological target: T1, ΔF508-CFTR; experiment: CFTR gating in excised inside-out patches, NIH/3T3-ΔF508 cells; details: ATP without genistein; stated for both wt- and ΔF508-CFTR
Method: (§1) FIGS. 9A and B are recordings of the effects of genistein on CFTR gating in excised inside-out patches from NIH/3T3-CFTR or NIH/3T3-ΔF508 cells. CFTR channels were activated by 10 μM forskolin +20 nM calyculin A before excision into an inside-out configuration. Presence of calyculin A helps to slow channel dephosphorylation. (A): continuous 14.5 minute recording of a patch containing wt-CFTR. Expanded traces are 22 seconds in length. ATP (500 μM) with or without 20 μM genistein was present as indicated. (B): 2 traces of 44 seconds in length of an excised inside-out patch with CFTR-ΔF508.
(§2) Electrophysiology: CFTR channel currents were recorded at room temperature (~22° C.) with a patch-clamp amplifier (EPC-9, Heka Electronic), filtered at 100 Hz with a built-in three-pole Bessel filter, and stored on videotapes. Data were subsequently refiltered at 25 Hz with an eight-pole Bessel filter (Frequency Device, Havervill, Mass.) and captured onto a hard disk at a sampling rate of 50 Hz. […] Patch-clamp electrodes were made from Corning 7052 glass capillaries (Warner Instrument, Hammed, Conn.). The pipette resistance was usually 3-5 M.OMEGA., and the seal resistance was >20 G.OMEGA.. The pipette solution contained (in mM) 140 N-methyl-D-glucamine chloride (NMDG-C1), 2 MgCl2, 5Ca Cl2, and 10 HEPES (pH 7.4 with NMDG). The superfusion solution contained (in mM) 150 […], 2 MgCl2, 1 EGTA, 5 glucose, and 5 HEPES (pH 7.4 with NaOH). In excised inside-out patch experiments, the bath solution contained (in mM) 130 MNDG-Cl, 10 EGTA, 10 HEPES, 20 tetraethylammonium chloride, 8 Tris, and 2 MgCl2 (pH 7.4 with NMDG). Pipette potential was held at 50 mV relative to the bath. Downward deflections represent channel opening.
(§3) Channels were first activated in cell-attached patches with forskolin plus calyculin A, a membrane-permeant phosphatase inhibitor [Suganuma et al., 1991]. Patches were then excised into an inside-out configuration.

SMILES | channel open time [milliseconds]
Nc1ncnc2c1ncn2[C@@H]1O[C@H](COP(=O)(O)OP(=O)(O)OP(=O)(O)O)[C@@H](O)[C@H]1O [ATP, reference compound] | 302±2

test system: CFTR; experiment: Other protein tyrosine kinase inhibitors, enhancement of CFTR activity; assay type: cell-based; details: methodology of Example 1
Method: Based on the results of Example 1 other protein tyrosine kinase inhibitors were tested using the methodology of Example 1.

SMILES | enhancement of CFTR activity
O=c1c(O)c(-c2ccc(O)c(O)c2)oc2cc(O)cc(O)c12 [quercetin] | failed to enhance CFTR activity

biological target: wt-CFTR (Homo sapiens, UniProt P13569); experiment: not given; details: ATP without genistein; stated for both wt- and ΔF508-CFTR
Sequence (P13569 whole entry): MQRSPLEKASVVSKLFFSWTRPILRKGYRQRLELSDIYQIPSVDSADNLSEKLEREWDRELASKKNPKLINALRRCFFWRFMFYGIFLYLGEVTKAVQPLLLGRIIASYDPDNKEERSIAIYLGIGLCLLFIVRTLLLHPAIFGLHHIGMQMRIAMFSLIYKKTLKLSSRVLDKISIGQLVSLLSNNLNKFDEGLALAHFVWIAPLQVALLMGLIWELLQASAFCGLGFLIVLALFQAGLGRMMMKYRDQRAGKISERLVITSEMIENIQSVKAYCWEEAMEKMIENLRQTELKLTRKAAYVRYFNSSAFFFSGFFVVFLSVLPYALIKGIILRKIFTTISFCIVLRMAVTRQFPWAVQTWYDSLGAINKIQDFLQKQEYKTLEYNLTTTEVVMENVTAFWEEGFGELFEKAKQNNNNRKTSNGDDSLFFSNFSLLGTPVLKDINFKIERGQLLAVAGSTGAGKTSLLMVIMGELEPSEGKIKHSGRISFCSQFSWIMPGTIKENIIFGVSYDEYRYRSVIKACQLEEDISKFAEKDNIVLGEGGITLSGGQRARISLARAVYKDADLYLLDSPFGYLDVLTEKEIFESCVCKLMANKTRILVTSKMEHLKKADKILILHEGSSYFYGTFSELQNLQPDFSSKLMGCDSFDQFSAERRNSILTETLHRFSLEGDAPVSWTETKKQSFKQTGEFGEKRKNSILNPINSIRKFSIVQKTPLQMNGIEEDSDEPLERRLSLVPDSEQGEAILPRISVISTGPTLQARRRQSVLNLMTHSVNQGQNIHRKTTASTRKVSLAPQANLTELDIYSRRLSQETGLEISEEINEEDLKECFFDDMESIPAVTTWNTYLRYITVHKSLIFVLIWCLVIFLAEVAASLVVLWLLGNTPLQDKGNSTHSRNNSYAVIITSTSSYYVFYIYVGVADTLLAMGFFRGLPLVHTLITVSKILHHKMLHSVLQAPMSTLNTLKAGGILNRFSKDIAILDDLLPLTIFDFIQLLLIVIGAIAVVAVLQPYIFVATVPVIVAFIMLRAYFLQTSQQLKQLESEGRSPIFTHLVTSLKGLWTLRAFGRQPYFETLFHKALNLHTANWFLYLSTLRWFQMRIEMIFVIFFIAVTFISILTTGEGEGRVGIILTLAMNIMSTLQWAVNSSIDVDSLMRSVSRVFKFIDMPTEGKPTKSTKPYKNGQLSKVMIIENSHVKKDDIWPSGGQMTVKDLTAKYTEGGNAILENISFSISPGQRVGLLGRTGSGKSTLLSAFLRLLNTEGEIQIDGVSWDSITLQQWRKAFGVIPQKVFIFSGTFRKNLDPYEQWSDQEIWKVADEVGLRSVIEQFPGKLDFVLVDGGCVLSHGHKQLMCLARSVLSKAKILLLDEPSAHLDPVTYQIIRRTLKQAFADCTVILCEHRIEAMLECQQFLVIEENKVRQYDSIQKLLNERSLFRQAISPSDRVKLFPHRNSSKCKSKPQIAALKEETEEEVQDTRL
Method: as §1, §2, §3

SMILES | channel open time [milliseconds]
Nc1ncnc2c1ncn2[C@@H]1O[C@H](COP(=O)(O)OP(=O)(O)OP(=O)(O)O)[C@@H](O)[C@H]1O [ATP, reference compound] | 302±2

biological target: T1, ΔF508-CFTR; experiment: Other protein tyrosine kinase inhibitors, activation of ΔF508-CFTR; assay type: cell-based; design: expressed in transfected cells; host or cells: NIH/3T3 cells, stably transfected (NIH/3T3-ΔF508, gift of Dr. Richard Mulligan); details: not given

SMILES | ΔF508-CFTR stimulation activity among protein tyrosine kinase inhibitors
Nc1ccc(-c2cc(=O)c3cc(O)ccc3o2)cc1 [aminogenistein, 4'-amino-6-hydroxyflavone] | is the only protein tyrosine kinase inhibitor that has such an effect

same assay, conditions: methodology of Example 1

activation of ΔF508-CFTR | SMILES
failed to activate ΔF508-CFTR | Oc1cc(O)cc(/C=C/c2ccc(O)c(O)c2)c1 [piceatannol]
failed to activate ΔF508-CFTR | O=C(O)c1cc(N(Cc2ccccc2O)Cc2ccccc2O)ccc1O [lavendustin B]
failed to activate ΔF508-CFTR | COC(=O)c1cc(NCc2cc(O)ccc2O)ccc1O [lavendustin C methyl ester]
failed to activate ΔF508-CFTR | Cc1cc(O)c2c(c1)C(=O)c1cc(O)cc(O)c1C2=O [emodin]
failed to activate ΔF508-CFTR | CCOc1cc(C=C(C#N)C(N)=O)cc(CSc2ccccc2)c1O [ST638]
failed to activate ΔF508-CFTR | O=C(O)c1cc(N(Cc2ccccc2O)Cc2cc(O)ccc2O)ccc1O [lavendustin A]
failed to activate ΔF508-CFTR | COc1c(C=O)c(O)cc2c1C(=O)c1ccccc1C2=O [damnacanthal]
failed to activate ΔF508-CFTR | O=c1c(-c2ccc(O)cc2)coc2cc(O)ccc12 [daidzein]

SMILES | activation of ΔF508-CFTR
Cc1ccc(-c2nn(C(C)(C)C)c3ncnc(N)c23)cc1 [PP1] | failed to activate ΔF508-CFTR
COC1C=CC=C(C)C(=O)NC2=CC(=O)C=C(C2=O)C(OC)C(C)CC(OC)C(OC)C(C)C=C(C)C1OC(N)=O (stereo not drawn) [herbimycin A] | failed to activate ΔF508-CFTR
COC(=O)/C=C/c1cc(O)ccc1O [erbstatin analogue] | failed to activate ΔF508-CFTR
COC1=C2C[C@@H](C)C[C@H](OC)[C@H](O)[C@@H](C)/C=C(\C)[C@H](OC(N)=O)[C@@H](OC)/C=C\C=C(/C)C(=O)NC(=CC1=O)C2=O [geldanamycin] | failed to activate ΔF508-CFTR
CC(=O)OCOC(c1ccc2ccccc2c1)P(=O)(OCOC(C)=O)OCOC(C)=O (stereo not drawn) [HNMP-A (AM)^3] | failed to activate ΔF508-CFTR
